Data reported in patent US12310954B2, “Salivary gland regeneration” (The Regents of the University of California, priority 2018, dated 2025).

Key:
SOX2^+ cells of the SLG = experiment: Pilocarpine treatment of mice, SOX2/Ki67 immunostaining of sublingual gland; format: in vivo, mouse; conditions: wild-type mice, I.P. 4.5 mg/kg, vs saline
Experimental: Adult male C57BL/6 mice (aged between 6 and 8 weeks) were treated with pilocarpine (Sigma-Aldrich, P0472; 0.68 mg/ml in 0.9% sterile saline). Mice were anesthetized using isoflurane and injected I.P. with pilocarpine at a dose of 4.5 mg/kg bodyweight (200 μl), or 0.9% saline as a vehicle control. Mice were euthanized after 18 h and glands processed for immunofluorescent analysis. Whole-mount salivary gland and tissue section immunofluorescence analysis has been previously described (Knox et al., 2010). In brief, tissue was fixed with either ice-cold acetone/methanol (1:1) for 1 min or 4% PFA for 20-30 min followed by permeabilizing with 0.1-0.3% Triton X. Tissue was blocked overnight at 4° C. with 10% Donkey Serum (Jackson Laboratories, ME), 1% BSA (Sigma-Aldrich), and MOM IgG-blocking reagent (Vector Laboratories, CA) in 0.01% PBS-Tween 20. […] Antibodies were detected using Cy2-, Cy3-, or Cy5-conjugated secondary Fab fragment antibodies (Jackson Laboratories) and nuclei stained using Hoechst 33342 (1:1,000, Sigma-Aldrich). Fluorescence was analyzed using a Leica Sp5 confocal microscope and NIH ImageJ software. For immunofluorescent analyses (e.g., FIG. 2D), cells positively stained for markers were counted using ImageJ. Acinar cell size was measured using ImageJ. […]

[1] = long term oral administration; cited from earlier work
[2] = continuous oral administration, irradiated mice, vs untreated controls; cited from earlier work
[3] = long term oral use in patients; cited from earlier work

In the case of CC[C@@H]1C(=O)OC[C@@H]1Cc1cncn1C [pilocarpine], the “percentage of SOX2^+ cells” value (SOX2^+ cells of the SLG; 18 h post-injection) is given as “not significantly changed”, the “percentage of proliferating SOX2^+ cells (SOX2^+Ki67^+ cells)” value (SOX2^+ cells of the SLG; sacrificed at 18 h) is given as “increased” and the tumorigenicity [1] is given as “not shown to be tumorigenic”. For the same molecule, the salivary flow [2] was “promoted salivary flow” and the salivary gland function [3] was “improves salivary gland function”.
